Measured values published in patent US20240358693A1, “METHODS OF TREATING PAIN” (Aisa Pharma, Inc., priority 2023, published 2024).

Test system: participants with SSc-RP
Experiment: Average duration of weekly RP attacks (minutes)
Assay type: in vivo, human
Description: The absolute change in average duration of weekly RP attacks from baseline to the end of each dosing period was and will be a secondary outcome variable. The sponsor-developed participant-informed diary was and will be used to record data. Average duration of weekly RP attacks is defined as the total duration of RP attacks divided by total number of RP attacks within the last 7 days of each dosing period. Total duration of RP attacks during the last 7 days of screening period divided by the total number of RP attacks will be used as baseline for the analysis of all periods. The variable will be calculated similar to frequency data as before.

[1] = Pooled Cilnidipine 10 mg and Cilnidipine 10 mg + Tadalafil 5 mg, Excluding Outliers, by Baseline RCS, subgroup 2, ITT Population - Part A
[2] = Pooled Cilnidipine 10 mg and Cilnidipine 10 mg + Tadalafil 5 mg, ITT Part A
[3] = Pooled Cilnidipine 10 mg and Cilnidipine 10 mg + Tadalafil 5 mg, by Baseline RCS, subgroup 1, ITT Population - Part A
[4] = Pooled Cilnidipine 10 mg and Cilnidipine 10 mg + Tadalafil 5 mg, by Baseline RCS, subgroup 2, ITT Population - Part A
[5] = Pooled Cilnidipine 20 mg and Cilnidipine 20 mg + Tadalafil 5 mg, n=4, Excluding Outliers, ITT Part A
[6] = Pooled Cilnidipine 20 mg and Cilnidipine 20 mg + Tadalafil 5 mg, n=4, ITT Part A
[7] = Pooled Cilnidipine 20 mg and Cilnidipine 20 mg + Tadalafil 5 mg, Baseline RCS subgroup 1 (unnamed), ITT Part A
[8] = Pooled Cilnidipine 20 mg and Cilnidipine 20 mg + Tadalafil 5 mg, Baseline RCS subgroup 2 (unnamed), ITT Part A
[9] = Pooled Cilnidipine 20 mg and Cilnidipine 20 mg + Tadalafil 5 mg, Excluding Outliers, Baseline RCS subgroup 1 (unnamed), ITT Part A
[10] = Pooled Cilnidipine 20 mg and Cilnidipine 20 mg + Tadalafil 5 mg, Excluding Outliers, Baseline RCS subgroup 2 (unnamed), ITT Part A
[11] = Pooled Cilnidipine 20 mg and Cilnidipine 20 mg + Tadalafil 5 mg, Excluding Outliers, ITT Population - Part A
[12] = Pooled Cilnidipine 20 mg and Cilnidipine 20 mg + Tadalafil 5 mg, Excluding Outliers, by Baseline RCS, subgroup 1, ITT Population - Part A

COCCOC(=O)C1=C(C)NC(C)=C(C(=O)OC/C=C/c2ccccc2)C1c1cccc([N+](=O)[O-])c1 (stereo not shown) [Cilnidipine, cilnidipine]
Average Duration of Weekly RP Attacks (All Attacks) Change from Baseline, Mean [1]: -20.38 min
Average Duration of Weekly RP Attacks (All Attacks) Change from Baseline, Median [1]: -20.38 min
Average Duration of Weekly RP Attacks (All Attacks) Percent Change from Baseline, Mean [1]: −37.36%
Average Duration of Weekly RP Attacks (All Attacks) Percent Change from Baseline, Median [1]: −37.36%
Average Duration of Weekly RP Attacks (All Attacks), Mean [1]: 34.17 min
Average Duration of Weekly RP Attacks (All Attacks), Median [1]: 34.17 min
Average Duration of Weekly RP Attacks (All Attacks) Change from Baseline, Mean [2]: -9.54 min
Average Duration of Weekly RP Attacks (All Attacks) Change from Baseline, Median [2]: -8.48 min
Average Duration of Weekly RP Attacks (All Attacks) Percent Change from Baseline, Mean [2]: −19.10%
Average Duration of Weekly RP Attacks (All Attacks) Percent Change from Baseline, Median [2]: −21.20%
Average Duration of Weekly RP Attacks (All Attacks), Mean [2]: 27.90 min
Average Duration of Weekly RP Attacks (All Attacks), Median [2]: 31.52 min
Average Duration of Weekly RP Attacks (All Attacks) Change from Baseline, Mean [3]: -4.13 min
Average Duration of Weekly RP Attacks (All Attacks) Change from Baseline, Median [3]: -4.13 min
Average Duration of Weekly RP Attacks (All Attacks) Percent Change from Baseline, Mean [3]: −9.97%
Average Duration of Weekly RP Attacks (All Attacks) Percent Change from Baseline, Median [3]: −9.97%
Average Duration of Weekly RP Attacks (All Attacks), Mean [3]: 24.76 min
Average Duration of Weekly RP Attacks (All Attacks), Median [3]: 24.76 min
Average Duration of Weekly RP Attacks (All Attacks) Change from Baseline, Mean [4]: -20.38 min
Average Duration of Weekly RP Attacks (All Attacks) Change from Baseline, Median [4]: -20.38 min
Average Duration of Weekly RP Attacks (All Attacks) Percent Change from Baseline, Mean [4]: −37.36%
Average Duration of Weekly RP Attacks (All Attacks) Percent Change from Baseline, Median [4]: −37.36%
Average Duration of Weekly RP Attacks (All Attacks), Mean [4]: 34.17 min
Average Duration of Weekly RP Attacks (All Attacks), Median [4]: 34.17 min
Average Duration of Weekly Symptomatic RP Attacks, Change from Baseline, Mean [5]: -7.51 min
Average Duration of Weekly Symptomatic RP Attacks, Change from Baseline, Median [5]: -3.55 min
Average Duration of Weekly Symptomatic RP Attacks, Mean [5]: 27.98 min
Average Duration of Weekly Symptomatic RP Attacks, Median [5]: 22.96 min
Average Duration of Weekly Symptomatic RP Attacks, Percent Change from Baseline, Mean [5]: −16.40%
Average Duration of Weekly Symptomatic RP Attacks, Percent Change from Baseline, Median [5]: −7.30%
Average Duration of Weekly Symptomatic RP Attacks, Change from Baseline, Mean [6]: -7.51 min
Average Duration of Weekly Symptomatic RP Attacks, Change from Baseline, Median [6]: -3.55 min
Average Duration of Weekly Symptomatic RP Attacks, Mean [6]: 27.98 min
Average Duration of Weekly Symptomatic RP Attacks, Median [6]: 22.96 min
Average Duration of Weekly Symptomatic RP Attacks, Percent Change from Baseline, Mean [6]: −16.40%
Average Duration of Weekly Symptomatic RP Attacks, Percent Change from Baseline, Median [6]: −7.30%
Average Duration of Weekly Symptomatic RP Attacks, Change from Baseline, Mean [7]: -1.01 min
Average Duration of Weekly Symptomatic RP Attacks, Change from Baseline, Median [7]: 3.24 min
Average Duration of Weekly Symptomatic RP Attacks, Mean [7]: 16.31 min
Average Duration of Weekly Symptomatic RP Attacks, Median [7]: 15.46 min
Average Duration of Weekly Symptomatic RP Attacks, Percent Change from Baseline, Mean [7]: −11.86%
Average Duration of Weekly Symptomatic RP Attacks, Percent Change from Baseline, Median [7]: 15.41%
Average Duration of Weekly Symptomatic RP Attacks, Change from Baseline, Mean [8]: -27.00 min
Average Duration of Weekly Symptomatic RP Attacks, Change from Baseline, Median [8]: -27.00 min
Average Duration of Weekly Symptomatic RP Attacks, Mean [8]: 63.00 min
Average Duration of Weekly Symptomatic RP Attacks, Median [8]: 63.00 min
Average Duration of Weekly Symptomatic RP Attacks, Percent Change from Baseline, Mean [8]: −30.00%
Average Duration of Weekly Symptomatic RP Attacks, Percent Change from Baseline, Median [8]: −30.00%
Average Duration of Weekly Symptomatic RP Attacks, Change from Baseline, Mean [9]: -1.01 min
Average Duration of Weekly Symptomatic RP Attacks, Change from Baseline, Median [9]: 3.24 min
Average Duration of Weekly Symptomatic RP Attacks, Mean [9]: 16.31 min
Average Duration of Weekly Symptomatic RP Attacks, Median [9]: 15.46 min
Average Duration of Weekly Symptomatic RP Attacks, Percent Change from Baseline, Mean [9]: −11.86%
Average Duration of Weekly Symptomatic RP Attacks, Percent Change from Baseline, Median [9]: 15.41%
Average Duration of Weekly Symptomatic RP Attacks, Change from Baseline, Mean [10]: -27.00 min
Average Duration of Weekly Symptomatic RP Attacks, Change from Baseline, Median [10]: -27.00 min
Average Duration of Weekly Symptomatic RP Attacks, Mean [10]: 63.00 min
Average Duration of Weekly Symptomatic RP Attacks, Median [10]: 63.00 min
Average Duration of Weekly Symptomatic RP Attacks, Percent Change from Baseline, Mean [10]: −30.00%
Average Duration of Weekly Symptomatic RP Attacks, Percent Change from Baseline, Median [10]: −30.00%
Average Duration of Weekly RP Attacks (All Attacks) Change from Baseline, Mean [11]: -4.77 min
Average Duration of Weekly RP Attacks (All Attacks) Change from Baseline, Median [11]: -2.73 min
Average Duration of Weekly RP Attacks (All Attacks) Percent Change from Baseline, Mean [11]: −13.86%
Average Duration of Weekly RP Attacks (All Attacks) Percent Change from Baseline, Median [11]: −2.74%
Average Duration of Weekly RP Attacks (All Attacks), Mean [11]: 27.61 min
Average Duration of Weekly RP Attacks (All Attacks), Median [11]: 22.36 min
Average Duration of Weekly RP Attacks (All Attacks) Change from Baseline, Mean [12]: 0.00 min
Average Duration of Weekly RP Attacks (All Attacks) Change from Baseline, Median [12]: 2.16 min
Average Duration of Weekly RP Attacks (All Attacks) Percent Change from Baseline, Mean [12]: −10.70%
Average Duration of Weekly RP Attacks (All Attacks) Percent Change from Baseline, Median [12]: 17.86%
Average Duration of Weekly RP Attacks (All Attacks), Mean [12]: 15.91 min
Average Duration of Weekly RP Attacks (All Attacks), Median [12]: 14.27 min
Average Duration of Weekly RP Attacks (All Attacks) Change from Baseline, Mean (Pooled Cilnidipine 20 mg and Cilnidipine 20 mg + Tadalafil 5 mg, Excluding Outliers, by Baseline RCS, subgroup 2, ITT Population - Part A): -19.09 min
